From PMC6327999, “Hydroxyl-substituted double Schiff-base condensed 4-piperidone/cyclohexanones as potential anticancer agents with biological evaluation” (Journal of Enzyme Inhibition and Medicinal Chemistry, 2019)

What follows are compounds tested on human gastric adenocarcinoma cells (SGC7901) (assay: Cytotoxicity, MTT assay, SGC7901). Settings: Homo sapiens, SGC-7901; MTT, 24 hours.
Type: cell-based
Excerpt: (§1) Compounds 2a–d, 3a–e, 4a–e, 5a–d, and 6a–c were screened against human neoplastic cell lines such as human lung carcinoma cells (A549), human gastric adenocarcinoma cells (SGC7901), human cervical carcinoma cells (HeLa), human liver hepatocellular carcinoma cell line (Hepg2), human chronic myelogenous leukemia cell line (K562), human acute mononuclear granulocyte leukemia (THP-1), human normal heptical cell line (LO2) (Table 1) using modified MTT assay (3-(4,5-dimethyl-2-thiazolyl)-2,5-diphenyl-2-H-tetrazolium bromide, MTT, Dojindo Laboratories, Tokyo, Japan). All cell lines were maintained at 37 °C in a humidified 5% CO2 and 95% air atmosphere. The HePG2 cell lines were cultured in DMEM containing 10% fetal bovine serum. Other cell lines were grown in medium 1640 and supplemented with 10% fetal bovine serum. […] Controls were prepared with 0.1% DMSO (v/v) only. The cells were seeded in a 96-well plate in 200 µL medium per well at a density of 1 × 10^4 cells/well for 24 hours. The cells were treated with serial concentrations of compound and incubated for 24 hours. Cells with only culture media were used as control. After the media was removed, 20 µL of MTT (5 mg/mL) was added then the plates were incubated for 4 hours at 37 °C in cell culture incubator. The MTT containing media were removed and then 150 µL of DMSO was added to dissolve the dark-blue formazan crystals. The optical density (OD) was measured by a multi-well plate reader (TECAN, Männedorf, Switzerland) at 570 nm. The results are expressed as a decrease in the cell viability (%) in comparison to untreated controls. The concentration of each compound was examined in triplicate, and the IC50 values are expressed in Table 1. The concentrations of the compounds were 50, 20, 10, 5, 2.5, 1, 0.5, 0.1, 0.05 and 0.01 µg/mL. Doxorubicin (DOX) and Curcumin were used as positive controls. […] The concentrations of curcumin used were 100, 50, 25, 12.5, 6.25, 3.125, 1, 0.5 and 0.1 µg/mL.

| Compound | IC50 [µM] |
| --- | --- |
| CN1C/C(=C\c2cc(/N=C/c3ccc(O)c(O)c3O)ccc2F)C(=O)/C(=C/c2cc(/N=C/c3ccc(O)c(O)c3O)ccc2F)C1 [6c] | 2 ± 0.2 |
| CN1C/C(=C\c2cc(N)ccc2F)C(=O)/C(=C/c2cc(N)ccc2F)C1 [2d] | 3.8 ± 1.2 |

Same assay, conditions: quotient of the IC50 values towards nonmalignant LO2 cells

| Compound | SGC7901 SI |
| --- | --- |
| CN1C/C(=C\c2cc(/N=C/c3ccc(O)c(O)c3O)ccc2F)C(=O)/C(=C/c2cc(/N=C/c3ccc(O)c(O)c3O)ccc2F)C1 [6c] | 9.3 |
| CN1C/C(=C\c2cc(N)ccc2F)C(=O)/C(=C/c2cc(N)ccc2F)C1 [2d] | 5.6 |

What follows are compounds tested on human acute mononuclear granulocyte leukemia (THP-1) (assay: Cytotoxicity, MTT assay, THP-1). Settings: Homo sapiens, THP-1; MTT, 24 hours.
Type: cell-based
Excerpt: as §1

| Compound | IC50 [µM] |
| --- | --- |
| CN1C/C(=C\c2cc(/N=C/c3ccc(O)c(O)c3O)ccc2F)C(=O)/C(=C/c2cc(/N=C/c3ccc(O)c(O)c3O)ccc2F)C1 [6c] | 1.6 ± 0.1 |
| CN1C/C(=C\c2cc(N)ccc2F)C(=O)/C(=C/c2cc(N)ccc2F)C1 [2d] | 2.1 ± 1.1 |

Same assay, conditions: quotient of the IC50 values towards nonmalignant LO2 cells

| Compound | THP-1 SI |
| --- | --- |
| CN1C/C(=C\c2cc(/N=C/c3ccc(O)c(O)c3O)ccc2F)C(=O)/C(=C/c2cc(/N=C/c3ccc(O)c(O)c3O)ccc2F)C1 [6c] | 11.4 |
| CN1C/C(=C\c2cc(N)ccc2F)C(=O)/C(=C/c2cc(N)ccc2F)C1 [2d] | 10.3 |

These compounds were tested on human cervical carcinoma cells (HeLa) (assay: Cytotoxicity, MTT assay, HeLa). Settings: Homo sapiens, HeLa; MTT, 24 hours.
Type: cell-based
Excerpt: as §1

| Compound | IC50 [µM] |
| --- | --- |
| CN1C/C(=C\c2cc(/N=C/c3ccc(O)c(O)c3O)ccc2F)C(=O)/C(=C/c2cc(/N=C/c3ccc(O)c(O)c3O)ccc2F)C1 [6c] | 2.5 ± 0.1 |
| CN1C/C(=C\c2cc(N)ccc2F)C(=O)/C(=C/c2cc(N)ccc2F)C1 [2d] | 3.1 ± 0.1 |

Same assay, conditions: quotient of the IC50 values towards nonmalignant LO2 cells

| Compound | HeLa SI |
| --- | --- |
| CN1C/C(=C\c2cc(/N=C/c3ccc(O)c(O)c3O)ccc2F)C(=O)/C(=C/c2cc(/N=C/c3ccc(O)c(O)c3O)ccc2F)C1 [6c] | 7.5 |
| CN1C/C(=C\c2cc(N)ccc2F)C(=O)/C(=C/c2cc(N)ccc2F)C1 [2d] | 6.9 |

Each compound was assayed on human lung carcinoma cells (A549) (assay: Cytotoxicity, MTT assay, A549). Settings: Homo sapiens, A549; MTT, 24 hours.
Type: cell-based
Excerpt: as §1

| Compound | IC50 [µM] |
| --- | --- |
| CN1C/C(=C\c2cc(/N=C/c3ccc(O)c(O)c3O)ccc2F)C(=O)/C(=C/c2cc(/N=C/c3ccc(O)c(O)c3O)ccc2F)C1 [6c] | 1.5 ± 0.2 |
| CN1C/C(=C\c2cc(N)ccc2F)C(=O)/C(=C/c2cc(N)ccc2F)C1 [2d] | 4.1 ± 1 |

Same assay, conditions: quotient of the IC50 values towards nonmalignant LO2 cells

| Compound | A549 SI |
| --- | --- |
| CN1C/C(=C\c2cc(/N=C/c3ccc(O)c(O)c3O)ccc2F)C(=O)/C(=C/c2cc(/N=C/c3ccc(O)c(O)c3O)ccc2F)C1 [6c] | 12.5 |
| CN1C/C(=C\c2cc(N)ccc2F)C(=O)/C(=C/c2cc(N)ccc2F)C1 [2d] | 5.4 |

Each compound was assayed on human liver hepatocellular carcinoma cell line (Hepg2) (assay: Cytotoxicity, MTT assay, HePG2). Settings: Homo sapiens, HepG2; MTT, 24 hours.
Type: cell-based
Excerpt: as §1, with “µg/mL.” for “µg/mL. Doxorubicin (DOX) and Curcumin were used as positive controls.”

| Compound | IC50 [µM] |
| --- | --- |
| CN1C/C(=C\c2cc(/N=C/c3ccc(O)c(O)c3O)ccc2F)C(=O)/C(=C/c2cc(/N=C/c3ccc(O)c(O)c3O)ccc2F)C1 [6c] | 2.6 ± 0.2 |
| CN1C/C(=C\c2cc(N)ccc2F)C(=O)/C(=C/c2cc(N)ccc2F)C1 [2d] | 6.2 ± 0.3 |

Same assay, conditions: quotient of the IC50 values towards nonmalignant LO2 cells

| Compound | HePG2 SI |
| --- | --- |
| CN1C/C(=C\c2cc(/N=C/c3ccc(O)c(O)c3O)ccc2F)C(=O)/C(=C/c2cc(/N=C/c3ccc(O)c(O)c3O)ccc2F)C1 [6c] | 7.1 |
| CN1C/C(=C\c2cc(N)ccc2F)C(=O)/C(=C/c2cc(N)ccc2F)C1 [2d] | 3.5 |

What follows are compounds tested on human carcinoma cell lines A549, SGC7901, HePG2, HeLa, K562, THP-1 (assay: Cytotoxicity, MTT assay, panel of human carcinoma cell lines (average / overall)). Settings: Homo sapiens; average over the six carcinoma cell lines; read-out: Ave IC50.
Type: cell-based
Excerpt: as §1
The cytotoxicity activities against human carcinoma cell lines A549, SGC7901, HePG2, HeLa, K562, THP-1 and cytotoxicity toward LO2 cell lines were evaluated by MTT method. DOX and curcumin were used as positive control. The selectivity index (SI) is the quotient of the IC50 values towards nonmalignant LO2 cells. […] Especially for 4a–e, 5a–d, and 6a–c, this ratio can reach about 92%.

| Compound | IC50 [µM] |
| --- | --- |
| CN1C/C(=C\c2cc(/N=C/c3ccc(O)c(O)c3O)ccc2F)C(=O)/C(=C/c2cc(/N=C/c3ccc(O)c(O)c3O)ccc2F)C1 [6c] | 2 |
| CN1C/C(=C\c2cc(N)ccc2F)C(=O)/C(=C/c2cc(N)ccc2F)C1 [2d] | 3.7 |

Same assay, conditions: average over the six carcinoma cell lines

| Compound | Ave SI |
| --- | --- |
| CN1C/C(=C\c2cc(/N=C/c3ccc(O)c(O)c3O)ccc2F)C(=O)/C(=C/c2cc(/N=C/c3ccc(O)c(O)c3O)ccc2F)C1 [6c] | 9.5 |
| CN1C/C(=C\c2cc(N)ccc2F)C(=O)/C(=C/c2cc(N)ccc2F)C1 [2d] | 6.5 |

Each compound was assayed on human chronic myelogenous leukemia cell line (K562) (assay: Cytotoxicity, MTT assay, K562). Settings: Homo sapiens, K562; MTT, 24 hours.
Type: cell-based
Excerpt: as §1

| Compound | IC50 [µM] |
| --- | --- |
| CN1C/C(=C\c2cc(/N=C/c3ccc(O)c(O)c3O)ccc2F)C(=O)/C(=C/c2cc(/N=C/c3ccc(O)c(O)c3O)ccc2F)C1 [6c] | 1.9 ± 0.2 |
| CN1C/C(=C\c2cc(N)ccc2F)C(=O)/C(=C/c2cc(N)ccc2F)C1 [2d] | 3 ± 0.1 |

Same assay, conditions: quotient of the IC50 values towards nonmalignant LO2 cells

| Compound | K562 SI |
| --- | --- |
| CN1C/C(=C\c2cc(/N=C/c3ccc(O)c(O)c3O)ccc2F)C(=O)/C(=C/c2cc(/N=C/c3ccc(O)c(O)c3O)ccc2F)C1 [6c] | 9.5 |
| CN1C/C(=C\c2cc(N)ccc2F)C(=O)/C(=C/c2cc(N)ccc2F)C1 [2d] | 7.3 |

What follows are compounds tested on human normal heptical cell line (LO2) (assay: Cytotoxicity, MTT assay, non-malignant LO2). Settings: 24 hours, non-malignant cells.
Type: cell-based
Excerpt: as §1

| Compound | IC50 [µM] |
| --- | --- |
| CN1C/C(=C\c2cc(/N=C/c3ccc(O)c(O)c3O)ccc2F)C(=O)/C(=C/c2cc(/N=C/c3ccc(O)c(O)c3O)ccc2F)C1 [6c] | 18.4 ± 1 |
| CN1C/C(=C\c2cc(N)ccc2F)C(=O)/C(=C/c2cc(N)ccc2F)C1 [2d] | 21.6 ± 2.8 |
